Measured values reported in PubChem BioAssay AID330 (DTP/NCI, 2004).
Several values for one entry are separate records, joined by “and”; a condition that tells them apart may be missing. Equal entries are not always repeated. Inconclusive results and toxic doses are left out. How the source made its calls: active means survival T/C of 150% or more; inactive means T/C below 125% in these data.

Test system: P388 leukemia ip, CD2F1 mice, survival T/C
Assay: NCI In Vivo Anticancer Drug Screen. Data for tumor model P388 Leukemia (intraperitoneal) in CD2F1 (CDF1) mice
Settings: endpoint: median survival time, higher = longer survival
Summary of the method: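 Mice carrying the transplanted tumor received test compound or vehicle. Survival was recorded in each group, and the value is the treated-group measurement divided by that of the vehicle-treated control group.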

[1] = dose: 6.25 mg/kg/injection, schedule: Q01DX005 (ip), vehicle: Klucel (hydroxypropylcellulose) (HPC)
[2] = dose: 12.5 mg/kg/injection, schedule: Q01DX005 (ip), vehicle: Klucel (hydroxypropylcellulose) (HPC)
[3] = dose: 200.0 mg/kg/injection, schedule: Q04DX003 (ip), vehicle: saline with Tween-80
[4] = dose: 400.0 mg/kg/injection, schedule: Q04DX003 (ip), vehicle: saline with Tween-80
[5] = dose: 50.0 mg/kg/injection, schedule: Q01DX009 (ip), vehicle: saline with Tween-80
[6] = dose: 100.0 mg/kg/injection, schedule: Q01DX009 (ip), vehicle: saline with Tween-80
[7] = dose: 200.0 mg/kg/injection, schedule: Q01DX009 (ip), vehicle: saline with Tween-80
[8] = dose: 100.0 mg/kg/injection, schedule: Q04DX003 (ip), vehicle: saline with Tween-80
[9] = dose: 60.0 mg/kg/injection, schedule: Q01DX005 (ip), vehicle: saline with Tween-80
[10] = dose: 50.0 mg/kg/injection, schedule: Q01DX005 (ip), vehicle: saline
[11] = dose: 100.0 mg/kg/injection, schedule: Q01DX005 (ip), vehicle: saline
[12] = dose: 200.0 mg/kg/injection, schedule: Q01DX005 (ip), vehicle: saline
[13] = dose: 100.0 mg/kg/injection, schedule: Q04DX002 (ip), vehicle: saline with Tween-80
[14] = dose: 200.0 mg/kg/injection, schedule: Q04DX002 (ip), vehicle: saline with Tween-80
[15] = dose: 400.0 mg/kg/injection, schedule: Q04DX002 (ip), vehicle: saline with Tween-80
[16] = dose: 50.0 mg/kg/injection, schedule: Q01DX005 (ip), vehicle: Klucel (hydroxypropylcellulose) (HPC)
[17] = dose: 100.0 mg/kg/injection, schedule: Q01DX005 (ip), vehicle: Klucel (hydroxypropylcellulose) (HPC)
[18] = dose: 200.0 mg/kg/injection, schedule: Q01DX005 (ip), vehicle: Klucel (hydroxypropylcellulose) (HPC)

Measured: T/C

CC(=O)NC(Cn1cc(C(N)=O)ccc1=N)C(=O)O (stereo unspecified)
inactive: dose: 1.56 mg/kg/injection, schedule: Q01DX005 (ip), vehicle: Klucel (hydroxypropylcellulose) (HPC) 102 % of control | dose: 3.12 mg/kg/injection, schedule: Q01DX005 (ip), vehicle: Klucel (hydroxypropylcellulose) (HPC) 108 % of control and 114 % of control | [1] 115 % of control and 122 % of control | [2] 121 % of control

CSC1(CCC#N)C(=O)Nc2ccccc21 (stereo unspecified)
inactive: [3] 102 % of control | [4] 108 % of control

O=C(Sc1ccccc1)C1CC=CCC1 (stereo unspecified)
inactive: dose: 50.0 mg/kg/injection, schedule: Q01DX009 (ip), vehicle: Klucel (hydroxypropylcellulose) (HPC) 109 % of control | dose: 100.0 mg/kg/injection, schedule: Q01DX009 (ip), vehicle: Klucel (hydroxypropylcellulose) (HPC) 105 % of control

CCOc1c(N=Nc2cccc(Cl)c2)c(C)nn1C(N)=S
inactive: dose: 60.0 mg/kg/injection, schedule: Q01DX005 (ip), vehicle: Klucel + Tween-80 102 % of control | dose: 120.0 mg/kg/injection, schedule: Q01DX005 (ip), vehicle: Klucel + Tween-80 93 % of control | dose: 240.0 mg/kg/injection, schedule: Q01DX005 (ip), vehicle: Klucel + Tween-80 95 % of control

CC(C)(OC(=O)NC(CC(N)=O)C(=O)O)c1ccc(N=Nc2ccccc2)cc1 (stereo unspecified)
inactive: [5] 97 % of control | [6] 92 % of control | [7] 92 % of control

CNC(=S)NCOCCOC(C)=O
inactive: dose: 60.0 mg/kg/injection, schedule: Q01DX005 (ip), vehicle: saline 98 % of control | dose: 120.0 mg/kg/injection, schedule: Q01DX005 (ip), vehicle: saline 102 % of control | dose: 240.0 mg/kg/injection, schedule: Q01DX005 (ip), vehicle: saline 102 % of control

Nc1cc(N)cc(Cc2ccccc2)c1
inactive: [6] 100 % of control | [8] 100 % of control | [3] 109 % of control | [4] 95 % of control

O=C1CS(=O)(=O)C(c2ccccc2F)N1N1C(=O)CS(=O)(=O)C1c1ccccc1F (stereo unspecified)
inactive: dose: 15.0 mg/kg/injection, schedule: Q01DX005 (ip), vehicle: saline with Tween-80 98 % of control and 87 % of control | dose: 30.0 mg/kg/injection, schedule: Q01DX005 (ip), vehicle: saline with Tween-80 89 % of control | [9] 87 % of control and 89 % of control

O=S1(=O)CCC2=CC(C(F)(F)F)=CC(C(F)(F)F)=CN21
inactive: dose: 12.5 mg/kg/injection, schedule: Q01DX005 (ip), vehicle: saline with Tween-80 109 % of control | dose: 25.0 mg/kg/injection, schedule: Q01DX005 (ip), vehicle: saline with Tween-80 122 % of control | dose: 50.0 mg/kg/injection, schedule: Q01DX005 (ip), vehicle: saline with Tween-80 107 % of control

CC(=O)NC1C(Nc2ccc(S(=O)(=O)Nc3ccnn3-c3ccccc3)cc2)OC(CO)C(O)C1O (stereo unspecified)
inactive: [10] 108 % of control | [11] 100 % of control | [12] 106 % of control

COc1cc(/C=C2\N=C(c3cccc(C)c3)OC2=O)ccc1O
inactive: [5] 91 % of control | [6] 100 % of control | [7] 99 % of control

C/C(=N\NC(=S)NNC(=S)N1CCCc2ccccc21)c1ccccn1
inactive: dose: 100.0 mg/kg/injection, schedule: Q04DX002 (ip), vehicle: Klucel (hydroxypropylcellulose) (HPC) 113 % of control | dose: 200.0 mg/kg/injection, schedule: Q04DX002 (ip), vehicle: Klucel (hydroxypropylcellulose) (HPC) 115 % of control

COC(=O)c1nc(Cl)[nH]c1CC#N
inactive: [10] 103 % of control | [11] 112 % of control | [12] 105 % of control

Cc1ccc(S(=O)(=O)OC(=C(F)F)[Si](C)(C)C)cc1
inactive: [5] 102 % of control | [6] 94 % of control

O=C1CSC(c2c(Cl)cccc2[N+](=O)[O-])N1c1nncs1 (stereo unspecified)
inactive: [13] 87 % of control | [14] 87 % of control | [15] 92 % of control

CN1NC1(C)C (stereo unspecified)
inactive: dose: 50.0 mg/kg/injection, schedule: Q04DX002 (ip), vehicle: saline 100 % of control | dose: 100.0 mg/kg/injection, schedule: Q04DX002 (ip), vehicle: saline 110 % of control | dose: 200.0 mg/kg/injection, schedule: Q04DX002 (ip), vehicle: saline 98 % of control

Cc1c(C#N)c(N)nc2c(C(N)=O)nsc12
inactive: [1] 98 % of control | [2] 102 % of control | dose: 25.0 mg/kg/injection, schedule: Q01DX005 (ip), vehicle: Klucel (hydroxypropylcellulose) (HPC) 95 % of control | [16] 91 % of control

O=Nc1[nH]c(NO)c2ccccc12
inactive: [5] 91 % of control | [6] 87 % of control | [7] 87 % of control | dose: 400.0 mg/kg/injection, schedule: Q01DX009 (ip), vehicle: saline with Tween-80 90 % of control

Cc1ccc(NCCNCCO)c2c(=O)c3ccccc3sc12
active: [17] 158 % of control | [18] 155 % of control
inactive: dose: 3.75 mg/kg/injection, schedule: Q01DX009 (ip), vehicle: water 100 % of control | dose: 7.5 mg/kg/injection, schedule: Q01DX009 (ip), vehicle: distilled water + Tween-80 113 % of control | dose: 7.5 mg/kg/injection, schedule: Q01DX009 (ip), vehicle: water 99 % of control | dose: 12.5 mg/kg/injection, schedule: Q01DX005 (ip), vehicle: other 113 % of control | dose: 15.0 mg/kg/injection, schedule: Q01DX009 (ip), vehicle: distilled water + Tween-80 120 % of control | dose: 15.0 mg/kg/injection, schedule: Q01DX009 (ip), vehicle: water 123 % of control | dose: 25.0 mg/kg/injection, schedule: Q01DX005 (ip), vehicle: other 120 % of control | [16] 119 % of control

Nc1cc(C(F)(F)F)ccc1S
inactive: dose: 3.0 mg/kg/injection, schedule: Q01DX009 (ip), vehicle: DMSO 94 % of control | dose: 6.0 mg/kg/injection, schedule: Q01DX009 (ip), vehicle: DMSO 103 % of control | dose: 12.5 mg/kg/injection, schedule: Q01DX009 (ip), vehicle: DMSO 90 % of control

COc1cc(/C=C2\SC(=S)N(c3ccc(Cl)c(Cl)c3)C2=O)ccc1O
inactive: [16] 89 % of control | [17] 86 % of control | [18] 89 % of control

COC(=O)CCc1cc(=O)oc2c3c(cc(OC)c12)OC1OC(=O)CC31 (stereo unspecified)
inactive: dose: 8.75 mg/kg/injection, schedule: Q01DX005 (ip), vehicle: Klucel (hydroxypropylcellulose) (HPC) 90 % of control | dose: 17.5 mg/kg/injection, schedule: Q01DX005 (ip), vehicle: Klucel (hydroxypropylcellulose) (HPC) 95 % of control | dose: 35.0 mg/kg/injection, schedule: Q01DX005 (ip), vehicle: Klucel (hydroxypropylcellulose) (HPC) 90 % of control

C=CCC1CCC(=O)NC1=O (stereo unspecified)
inactive: dose: 50.0 mg/kg/injection, schedule: Q04DX002 (ip), vehicle: saline with Tween-80 102 % of control | [13] 102 % of control | [14] 100 % of control | [15] 112 % of control

CC1(C)OCC(C2OC3OC(C)(C)OC3C2=C(Br)Br)O1 (stereo unspecified)
inactive: [9] 91 % of control | dose: 120.0 mg/kg/injection, schedule: Q01DX005 (ip), vehicle: saline with Tween-80 100 % of control | dose: 240.0 mg/kg/injection, schedule: Q01DX005 (ip), vehicle: saline with Tween-80 89 % of control

C=C1C(=O)OC2C=C(C)CC3C=C(CCC=C(C)CCC12)C(=O)O3 (stereo unspecified)
inactive: dose: 50.0 mg/kg/injection, schedule: Q04DX003 (ip), vehicle: saline with Tween-80 102 % of control | [8] 104 % of control | [3] 115 % of control

O=C(O)c1c[nH]c2cc(OCc3ccc(F)cc3)ccc2c1=O
inactive: dose: 100.0 mg/kg/injection, schedule: Q04DX003 (ip), vehicle: saline 88 % of control | dose: 200.0 mg/kg/injection, schedule: Q04DX003 (ip), vehicle: saline 93 % of control | dose: 400.0 mg/kg/injection, schedule: Q04DX003 (ip), vehicle: saline 90 % of control
